Experimental data taken from patent publication US20050272688A1, “Combined treatment with gemcitabine and an epidermal growth factor receptor kinase inhibitor” (priority 2004, published 2005).
Several values for one entry are separate records, joined by “and”; a condition that tells them apart may be missing. Equal entries are not always repeated. Where two headings read alike, the source gives them in different places.

Columns and labels:
[1] = tested on: NSCLC; conditions: single agent, stage 1V patients; cited from earlier work
[2] = tested on: A549 NSCLC xenograft; type: in vivo
Description: Mice were implanted with A549 NSCLC cells. […] Tumor size was measured 3 times per week. Values are means, n=10.
(§1) H460a cells (provided by Dr Jack Roth, Md., Anderson) were grown in Dulbecco's Modified Eagle Media (DMEM) supplemented with 10% Foetal Bovine Serum (FBS). A549 cells (American Type Culture Collection [Manassas, Va.] were grown in Roswell Park Memorial Institute medium (RPMI) 1640+10% FBS. The cell concentrations for implant were 1×10^7 cells/0.2 mL for H460a and 7.5×10^6 cells/0.2 mL for A549.
(§2) Cells were suspended in phosphate-buffered saline, and implanted subcutaneously in the right flank of each mouse. Once palpable tumours were established, animals were randomised so that all groups had similar starting mean tumour volumes of 100-150 mm^3. Tumour measurements and mouse weights were taken three times per week. Animals were individually monitored throughout the experiment.
(§3) All groups were treated daily for 3 weeks.
(§4) Gemcitabine was given intraperitoneally (i.p.) using a 3 mL syringe and 26-gauge needle. All groups were treated every 3 days for 3 weeks (a total of six injections).
(§5) Weight loss was calculated as percent change in mean group body weight, using the formula: ((W−W0)/W0)×100 • where ‘W’ represents mean body weight of the treated group at a particular day, and ‘W0’ represents mean body weight of the same group at start of treatment. Maximum weight loss was also calculated using the above formula, giving the maximum percentage of body weight lost at any time in the entire experiment for a particular group. Treatment efficacy was assessed by tumor growth inhibition. Tumour volumes of treated groups were given as percentages of tumor volumes of the control groups (% T/C), using the formula: 100×((T−T0)/(C−C0)) • where ‘T’ represents mean tumor volume of a treated group on a specific day during the experiment, ‘T0’ represented mean tumor volume of the same group on the first day of treatment, C represents mean tumor volume of a control group on a particular day of the experiment, and C0 represents mean tumor volume of the same group on the first day of treatment.
(§6) Tumor growth inhibition was calculated using the formula: [127] 100% T/C
(§7) Tumor volume (mm^3) was calculated using the ellipsoid formula: (D×(d^2))/2 • where ‘D’ represents the large diameter of the tumor, and ‘d’ represents the small diameter. In some cases, tumor regression and/or percentage change in tumor volume was calculated using the formula: ((T−T0)/T0)×100 • where ‘T’ represents mean tumor volume of the treated group at a particular day, and ‘T0’ represents mean tumor volume of the same treated group at the start of treatment.

[3] = Chronic-dose plasma and tumor concentrations of erlotinib in tumor-bearing mice; type: in vivo, nu/nu athymic mice; conditions: for concentration at 1 h / concentration at 6 h: nu/nu athymic, mouse; for concentration at 1 h: 1 hour post dose; for concentration at 6 h: 6 hours post dose
Description: On day 28 post tumor implant, blood (from the retro-orbital sinus) and tumor samples were collected at 1 and 6 hours post dosing. […] Values are means±SD, n=3.
(§8) For single-dose pharmacokinetics (PK), blood samples from three mice per time point were collected by cardiac puncture at 5, 15, 30, 60 minutes and 2, 4, 8, 16, 24 hours post-dose. For chronically treated animals, blood samples from two or three mice per time point were collected via the retro-orbital sinus at 1 and 6 hours. Collection tubes contained ethylene diamine tetra-acetic acid (EDTA) as anticoagulant. Samples were stored at −70° C. […] PK parameters were estimated by non-compartmental analysis of the composite data, using the PK evaluation programme WinNonlin PRO® version 3.1 (Pharsight Inc).

[4] = Single-dose pharmacokinetics of erlotinib in non-tumor bearing mice; type: in vivo, female nu/nu athymic mice
Description: as §8
The doses refer to the hydrochloride salt with an active drug (free base) content of 91.5%. […] Three animals per time point were evaluated for PK data (FIG. 4).

[5] = tested on: H460a NSCLC xenograft; experiment: Tumor growth inhibition in H460a NSCLC xenograft model; type: in vivo, athymic nude mice
Description: (§9) Mice were implanted with H460a NSCLC cells. […] Tumor size was measured 3 times per week. Values are means, n=10.
as §9, §1, §2, §3, §4, §5, §6, §7

[6] = in vivo; conditions: for MTD at 14 days: female, mouse, in vivo
Description: FIG. 6: Maximum tolerated dose assessment in non-tumour bearing athymic nude mice treated for 14 days (n=5).
Female, athymic, nu/nu-nuBR nude mice (Charles River Labs, Wilmington, USA) of around 10-12 weeks and weighing 23-25 g were used. The health of the mice was assessed daily by observation and analysis of blood samples taken from sentinel animals on the shared shelf racks. All animals were allowed to acclimatise and recover from shipping-related stress for 1 week.

[7] = Necropsy, haematology, clinical chemistry and histology of treated mice; type: in vivo, athymic nude mice
Description: At necropsy, skin samples were fixed in 10% buffered formalin, embedded in paraffin, sectioned at 5 μand stained with haematoxylin and eosin.
Five mice per treatment from all remaining groups were given a full necropsy at the end of the study. Whole blood was also collected from these mice for haematology and clinical chemistry.

[8] = tested on: NSCLC xenograft tumor; experiment: Immunohistochemistry of xenograft tumors (Ki-67, TUNEL apoptosis, CD31 microvascular density); type: in vivo, athymic nude mice
Description: Sections for immunohistochemistry were cut at 5μ.
To block non-specific tissue-binding sites, sections were blocked by 10% normal serum from the species in which the secondary antibody was raised. Sections were incubated for 20 minutes at room temperature in serum prepared in Ultra-V (Lab Vision).

[9] = plasma, oral 6.3-150.0 mg/kg daily, highest value, read-out: Plasma concentration
[10] = H460a tumor, oral 150 mg/kg, read-out: Mean tumor concentration

For `CC(=O)O[C@H]1C(=O)[C@@]2(C)[C@H]([C@H](OC(=O)c3ccccc3)[C@]3(O)C[C@H](OC(=O)[C@H](O)[C@@H](NC(=O)c4ccccc4)c4ccccc4)C(C)=C1C3(C)C)[C@]1(OC(C)=O)CO[C@@H]1C[C@@H]2O` [paclitaxel], the Response rate [1] is listed as 21% to 24%.
With `C#Cc1cccc(Nc2ncnc3cc(OCCOC)c(OCCOC)cc23)c1` [erlotinib, [6,7-bis(2-methoxyethoxy)-4-quinazolin-4-yl]-(3-ethynylphenyl) amine] the Tumor growth inhibition ([2]; erlotinib 25 mg/kg alone, day 47) was 48%, the “Extent of partial regression” value ([2]; erlotinib 100 mg/kg alone) was 16% and 7% and the “Number of partial regressions” value ([2]; erlotinib 100 mg/kg alone) was “two”. For the same molecule, the Tumor growth inhibition ([2]; erlotinib 100 mg/kg alone, day 47 post tumor implantation (treatment day 19)) was 87%, the “Dose proportionality of exposure” value ([3]; ascending oral doses 6.3-150.0 mg/kg, tumor-bearing mice) was “more than dose-proportional” and the concentration at 1 h [3, 9] was no more than 16700 ng/mL. The concentration at 6 h [3, 9] was no more than 8870 ng/mL, the concentration at 1 h [3, 10] was 4800 ng/g and the concentration at 6 h [3, 10] was 3090 ng/g. The “Dose proportionality of exposure (AUC)” value ([4]; 20 vs 100 mg/kg single dose) was “dose-proportional”, the MRT ([4]; female, nu/nu athymic, mouse, plasma, po, single 20 and 100 mg/kg by gavage, read-out: Average mean residence time) was roughly 7 h and the half-life ([4]; female, nu/nu athymic, mouse, plasma, po, single 20 and 100 mg/kg by gavage, read-out: Mean apparent terminal half-life (converted)) was roughly 4 h. For the same molecule, the AUC(0-t) ([4]; female, nu/nu athymic, mouse, po, single 20 mg/kg by gavage, plasma) was 33.5 µg·h/mL, the AUC(0-t) ([4]; female, nu/nu athymic, mouse, po, single 100 mg/kg by gavage, plasma) was roughly 196 µg·h/mL and the “Mean maximum plasma concentration” value ([4]; single 20 mg/kg by gavage) was ~9,100 ng/mL. The “Mean maximum plasma concentration” value ([4]; single 100 mg/kg by gavage) was “approximately 24,000 ng/mL”, the “Time of maximum plasma concentration” value ([4]; single 20 and 100 mg/kg by gavage) was 0.5-1.0 hours post dose and the Tumor growth inhibition ([5]; dose response study, 6.25 mg/kg oral daily, day 28) was 28%. It also gave a Tumor growth inhibition ([5]; dose response study, 12.5 mg/kg oral daily, day 28) of 36%, a Tumor growth inhibition ([5]; dose response study, 25 mg/kg oral daily, day 28) of 46% and a Tumor growth inhibition ([5]; dose response study, 100 mg/kg oral daily, day 28 post tumor implantation) of 61%. For the same molecule, the Tumor regressions ([5]; dose response study, all dose groups) was “no partial or complete regressions”, the Tolerability ([6]; 150 mg/kg for 3 weeks, previous efficacy studies (unpublished)) was “well tolerated” and the Toxicity outcome ([6]; 200 mg/kg group) was “marked weight loss”. For the same molecule, the Toxicity outcome ([6]; 400 mg/kg group) was “One mouse in the 400 mg/kg group died”, the MTD at 14 days ([6]; oral daily, 14 days) was 100 mg/kg and the Skin lesion histology ([7]; erlotinib 100 mg/kg/day for 21 days) was “diffuse, mild to moderate epidermal acanthosis, epidermal hyperkeratosis, focal escharosis, and infiltration of mostly acute inflammatory cells in the dermis”. The “Changes in haematology or clinical chemistry parameters” value ([7]; erlotinib monotherapy) was “no changes”, the “Treatment-related macroscopic changes in the skin” value ([7]; erlotinib monotherapy) was “substantial reddening and crusting of the skin of the muzzle” and the Ki-67 proliferative index ([8]; erlotinib 100 mg/kg, both NSCLC xenograft tumor models) was “mild decrease”. For the same molecule, the “Angiogenesis as microvascular density (MVD), CD31 staining” value ([8]; erlotinib monotherapy) was “no clear effect” and the “Frequency of apoptosis in tumor cells” value ([8]; erlotinib monotherapy, treated xenografts) was “no significant difference”.
For `Nc1ccn([C@@H]2O[C@H](CO)[C@@H](O)C2(F)F)c(=O)n1` [gemcitabine], the Tumor growth inhibition ([2]; gemcitabine 30 mg/kg alone, day 47) was 42%, the “Extent of partial regression” value ([2]; gemcitabine 120 mg/kg alone) was 5% and the “Number of partial regressions” value ([2]; gemcitabine 120 mg/kg alone) was “one”. It also gave a Tumor growth inhibition ([2]; gemcitabine 120 mg/kg alone, day 47) of 75%, a Tumor growth inhibition ([5]; combination study, gemcitabine 30 mg/kg i.p. every 3 days alone) of 64% and a Tumor growth inhibition ([5]; combination study, gemcitabine 120 mg/kg i.p. every 3 days alone) of 93%. It also gave an MTD at 14 days ([6]; every 3 days) of 120 mg/kg.
